Data as given in US9296776B2, “Substituted nucleoside derivatives with antiviral and antimicrobial properties” (Eastern Virginia Medical School, priority 2007, dated 2016).
≈ marks a conversion by molar mass, not a printed value. Read-outs that look alike come from different tables or passages of the source.

Key:
[1] = tested on: HIV-1 IIIB (cell-free virus); test: microbe, parasite or virus in culture; type: cell-based; conditions: for IC50: read-out: IC50 Cell-Free Virus IIIB
[2] = tested on: H. ducreyi Strain HMC 64; test: Antibacterial activity (MIC), strain HMC 64; type: cell-based, Haemophilus ducreyi
[3] = tested on: H. ducreyi Strain HMC56; test: Antibacterial activity (MIC), strain HMC56; type: cell-based, Haemophilus ducreyi
[4] = tested on: H. ducreyi Strain HMC 62; test: Antibacterial activity (MIC), strain HMC 62; type: cell-based, Haemophilus ducreyi
[5] = tested on: Multidrug resistant virus 7324-1; test: Antiviral activity against multidrug resistant HIV, RT endpoint; type: cell-based, HIV-1
[6] = tested on: Cell-associated HIV-1, SupT1 (IIIB); test: Single-round infection assay, cell-associated virus SupT1 (IIIB); type: cell-based
[7] = tested on: HIV-1 BaL (cell-free virus); test: Single-round infection assay, cell-free virus BaL; type: cell-based; conditions: for IC50 / EC50: Human immunodeficiency virus 1, BAL; for IC50: read-out: IC50 Cell-Free Virus BaL
[8] = tested on: HIV-1 clinical isolate R5 = 92TH014; test: Antiviral activity against HIV-1 clinical isolate R5, RT endpoint; type: cell-based
[9] = tested on: CCRF-CEM cell line; type: cell-based, human
Protocol: Cells were incubated with 10 μM of DMSO, FAM, KPH-1.5 and KPH-1.6 for 1 h and then imaged using a light microscope (ZEISS Axioplan 2) equipped with transmitted light microscopy with a differential-interference contrast method and an Achroplan 40× objective. […] The results further confirm the higher cellular uptake of KPH-1.6, a fatty acyl derivative of FLT, in comparison to KPH-1.5 and FAM alone. Similar results were also observed with fluorescein-substituted derivative of 3TC.

[10] = Cytotoxicity (Tables 4, 6, 8)
[11] = in vitro
[12] = tested on: Multidrug resistant virus 7324-1; test: Antiviral activity against multidrug resistant HIV-1 clinical isolate, p24 level (ELISA); type: cell-based; conditions: Table 5, MDR = 7324-1, 6 h incubation then 6 days
[13] = tested on: HIV-1 clinical isolate R5 = 92TH014; test: Antiviral activity against HIV-1 clinical isolate R5, p24 level (ELISA); type: cell-based; conditions: Table 5, 6 h incubation then 6 days
[14] = Table 1, 2 h incubation, wash, 48 h culture
[15] = Table 2, MDR = 7324-1, RT endpoint, 6 h incubation then 6 days
[16] = Table 2, 6 h incubation then 6 days
[17] = Table 8, 2 h incubation, wash, 48 h culture
[18] = Table 8, 2 h incubation, wash, 48 h culture, read-out: EC50 Cell-free HIV-1 (IIIB)
[19] = Human immunodeficiency virus 1, IIIB, Table 1, 2 h incubation, wash, 48 h culture
[20] = [Haemophilus] ducreyi, read-out: MIC (minimum inhibitory concentration)
[21] = Human immunodeficiency virus 1, IIIB, SUP-T1, Table 1, 2 h incubation, wash, 48 h culture, read-out: IC50 Cell-Associated Virus SupT1 (IIIB)
[22] = Human immunodeficiency virus 1, IIIB
[23] = Human immunodeficiency virus 1, IIIB, SUP-T1, read-out: IC50 Cell-Associated Virus SupT1 (IIIB)

Compound: Cc1cn([C@H]2C[C@H](F)[C@@H](COC(=O)CCCCCCCCCCCN=[N+]=[N-])O2)c(=O)[nH]c1=O [3′-fluoro-2′,3′-dideoxy-5′-O-(12-azidododecanoyl)thymidine]
- IC50 Cell-Free Virus IIIB [1, 14]: 0.4 µg/mL (≈ 0.856 µM)
- MIC (minimum inhibitory concentration) [2]: 125 µg/mL (≈ 267 µM)
- MIC (minimum inhibitory concentration) [3]: 500 µg/mL (≈ 1070 µM)
- MIC (minimum inhibitory concentration) [4]: 125 µg/mL (≈ 267 µM)
- IC50 [5, 15]: 0.003 µg/mL (≈ 0.00642 µM)
- IC50 Cell-Associated Virus SupT1 (IIIB) [6, 14]: 5.9 µg/mL (≈ 12.6 µM)
- IC50 Cell-Free Virus BaL [7, 14]: 0.2 µg/mL (≈ 0.428 µM)
- IC50 [8, 16]: 0.003 µg/mL (≈ 0.00642 µM)

Compound: CCCCCSCCCCCCCC(=O)OC[C@H]1O[C@@H](n2cc(C)c(=O)[nH]c2=O)C[C@@H]1N=[N+]=[N-] [3′-azido-2′,3′-dideoxy-5′-O-(9-thiatertradecanoyl)thymidine]
- IC50 Cell-Free Virus IIIB [1, 14]: 3.7 µg/mL (≈ 7.47 µM)
- MIC (minimum inhibitory concentration) [2]: 750 µg/mL (≈ 1510 µM)
- MIC (minimum inhibitory concentration) [3]: 250 µg/mL (≈ 504 µM)
- MIC (minimum inhibitory concentration) [4]: 250 µg/mL (≈ 504 µM)
- IC50 Cell-Associated Virus SupT1 (IIIB) [6, 14]: 42.0 µg/mL (≈ 84.7 µM)
- IC50 Cell-Free Virus BaL [7, 14]: 8.1 ( μg/mL

Compound: 3′-fluoro-2′,3′-dideoxy-5′-O-(12-(N-5(6)carboxylfluoresceinaminododecanoyl)thymidine
- IC50 Cell-Free Virus IIIB [1, 14]: 4.3 µg/mL
- cell fluorescence by microscopy [9]: showed fluorescence

Compound: CCCCCCCCCCCCCC(=O)OCC(NC(C)=O)C(=O)NCCC(=O)NC(CCC(=O)OC[C@H]1O[C@@H](n2cc(C)c(=O)[nH]c2=O)C[C@@H]1N=[N+]=[N-])C(=O)NCC(=O)O (stereo partly shown) [KPH-95, Myristoylserine-AZT(glutamyl)glycine]
- EC50 Cell-free HIV-1 (IIIB) [1, 17]: 54.5 µg/mL (≈ 63.1 µM)
- EC50 [1, 18]: 63.1 µM
- CC50 [10]: > 100 µg/mL

Compound: Cc1cn([C@H]2C[C@H](N=[N+]=[N-])[C@@H](CO)O2)c(=O)[nH]c1=O [3′-azido-2′,3′-dideoxythymidine (AZT), 3′-azido-2′,3′-dideoxythymidine, reference compound]
- IC50 [1, 19]: 9.2 µg/mL (≈ 34.4 µM)
- EC50 ([1]; Human immunodeficiency virus 1, IIIB, Table 4, read-out: EC50 Cell-Free Virus IIIB): 2.4 µg/mL
- MIC [2, 20]: 500 µg/mL (≈ 1870 µM)
- MIC [3, 20]: 125 µg/mL (≈ 468 µM)
- MIC [4, 20]: 750 µg/mL (≈ 2810 µM)
- CC50 [11]: > 100 µg/mL
- IC50 ([5]; Human immunodeficiency virus 1): 0.33 µg/mL (≈ 1.23 µM)
- IC50 [6, 21]: > 100 µg/mL
- EC50 ([6]; Human immunodeficiency virus 1, IIIB, SUP-T1, Table 4): > 100 µg/mL
- IC50 [7, 14]: 0.8 µg/mL (≈ 2.99 µM)
- EC50 ([7]; Table 4): 4.2 µg/mL (≈ 15.7 µM)
- IC50 ([8]; Human immunodeficiency virus 1, Table 2, 6 h incubation then 6 days, read-out: IC50): 0.02 µg/mL (≈ 0.0748 µM)

Compound: CCCCCCCCCCCCCC(=O)OCC(NC(C)=O)C(=O)NCCC(=O)NC(CCC(=O)OC[C@H]1O[C@@H](n2cc(C)c(=O)[nH]c2=O)C[C@@H]1F)C(=O)NCC(=O)O (stereo partly shown) [KPH-94, Myristoylserine-FLT(glutamyl)glycine]
- EC50 Cell-free HIV-1 (IIIB) [1, 17]: 9.3 µg/mL (≈ 11.1 µM)
- EC50 [1, 18]: 11.1 µM
- CC50 [10]: > 100 µg/mL

Compound: CCCCCCCCCCCCCC(=O)NCCCCC(NC(=O)CCNC(=O)C(CCC(=O)OC[C@H]1O[C@@H](n2cc(C)c(=O)[nH]c2=O)C[C@@H]1F)NC(C)=O)C(=O)O (stereo partly shown) [KPH-91, FLT(Glutamyl)-myrsitoyllysine]
- EC50 Cell-free HIV-1 (IIIB) [1, 17]: 8.7 µg/mL (≈ 10.5 µM)
- EC50 [1, 18]: 10.5 µM
- CC50 [10]: > 100 µg/mL

Compound: Sodium Cellulose Sulfate-Acetate-AZT (1.73%) [CS-Ac-AZT]
- IC50 [12]: 4.22 µg/mL
- EC50 Cell-Free Virus IIIB ([1]; Table 4): 2.5 µg/mL
- potency against cell-free virus relative to AZT, in moles ([1]; based on CS ~2×10^6 Daltons): 5 orders of magnitude
- IC50 [13]: 3.52 µg/mL
- EC50 Cell-Associated Virus SupT1-IIIB ([6]; Table 4): 5.6 µg/mL
- EC50 Cell-Free Virus BaL ([7]; Table 4): 8.1 µg/mL

Compound: Sodium Cellulose Sulfate-Acetate-FLT (1.45%) [CS-Ac-FLT]
- IC50 [12]: 0.50 µg/mL
- EC50 Cell-Free Virus IIIB ([1]; Table 4): 2.3 µg/mL
- IC50 [13]: 2.67 µg/mL
- EC50 Cell-Associated Virus SupT1-IIIB ([6]; Table 4): 5.8 µg/mL
- EC50 Cell-Free Virus BaL ([7]; Table 4): 1.5 µg/mL

Compound: Cc1ccc(C(=O)Nc2ccc(S(=O)(=O)O)c3cc(S(=O)(=O)O)cc(S(=O)(=O)O)c23)cc1NC(=O)c1cccc(NC(=O)Nc2cccc(C(=O)Nc3cc(C(=O)Nc4ccc(S(=O)(=O)O)c5cc(S(=O)(=O)O)cc(S(=O)(=O)O)c45)ccc3C)c2)c1 [Suramin, reference compound]
- EC50 ([1]; Human immunodeficiency virus 1, IIIB, read-out: EC50 Cell-Free Virus IIIB): 49.1 µg/mL
- CC50 [11]: > 100 µg/mL
- EC50 ([7]; Table 6): 1 µg/mL (≈ 0.771 µM)

Compound: CCCCCCCCCCCCCC(=O)NCCCC[C@H](NC(=O)CCNC(=O)[C@H](CCC(=O)OC[C@H]1O[C@@H](n2cc(C)c(=O)[nH]c2=O)C[C@@H]1F)NC(=O)CCCCCCCCCCCCC)C(=O)O [KPH-92, FLT(myristoylglutamyl)-mysritoyllysine]
- CC50 [10]: > 100 µg/mL

Compound: CCCCCCCCCCCCCC(=O)OC[C@H]1O[C@@H](n2cc(C)c(=O)[nH]c2=O)C[C@@H]1F [3′-fluoro-2′,3′-dideoxy-5′-O-(tetradecanoyl)thymidine]
- IC50 Cell-Free Virus IIIB [1, 14]: 0.3 µg/mL (≈ 0.66 µM)
- IC50 [5, 15]: 0.002 µg/mL (≈ 0.0044 µM)
- IC50 Cell-Associated Virus SupT1 (IIIB) [6, 14]: 2.9 µg/mL (≈ 6.38 µM)
- IC50 Cell-Free Virus BaL [7, 14]: 0.5 µg/mL (≈ 1.1 µM)
- IC50 [8, 16]: 0.003 µg/mL (≈ 0.0066 µM)

Compound: CCSCCCCCCCCCCCC(=O)OC[C@H]1O[C@@H](n2cc(C)c(=O)[nH]c2=O)C[C@@H]1F [3′-fluoro-2′,3′-dideoxy-5′-O-(13-thiapentadecanoyl)thymidine]
- IC50 Cell-Free Virus IIIB [1, 14]: 0.5 µg/mL (≈ 1.03 µM)
- MIC (minimum inhibitory concentration) [2]: 125 µg/mL (≈ 257 µM)
- MIC (minimum inhibitory concentration) [3]: 125 µg/mL (≈ 257 µM)
- MIC (minimum inhibitory concentration) [4]: 125 µg/mL (≈ 257 µM)
- IC50 [5, 15]: 0.002 µg/mL (≈ 0.00411 µM)
- IC50 Cell-Associated Virus SupT1 (IIIB) [6, 14]: 1.1 µg/mL (≈ 2.26 µM)
- IC50 Cell-Free Virus BaL [7, 14]: <0.1 µg/mL
- IC50 [8, 16]: 0.002 µg/mL (≈ 0.00411 µM)

Compound: Cc1cn([C@H]2C[C@H](N=[N+]=[N-])[C@@H](COC(=O)CCCCCCCCCCCBr)O2)c(=O)[nH]c1=O [3′-azido-2′,3′-dideoxy-5′-O-(12-bromododecanoyl)thymidine]
- IC50 Cell-Free Virus IIIB [1, 14]: 5.6 µg/mL (≈ 10.6 µM)
- IC50 Cell-Associated Virus SupT1 (IIIB) [6, 14]: >100 µg/mL
- IC50 Cell-Free Virus BaL [7, 14]: 2.6 µg/mL (≈ 4.92 µM)

Compound: CCCCCCCCCCCCCC(=O)Nc1ccn([C@H]2CS[C@@H](COC(=O)CCCCCCCCCCCCC)O2)c(=O)n1 [N4, 5′-O-dimyristoyl-2′,3′-dideoxy-3′-thiacytidine]
- IC50 [1, 19]: > 100 µg/mL
- IC50 [6, 21]: > 100 µg/mL
- IC50 [7, 14]: 87.8 µg/mL (≈ 135 µM)

Compound: 5(6)-carboxyfluorescein [FAM, reference compound]
- cell fluorescence by microscopy [9]: no significant fluorescence

Compound: CCCCCCCCCCCCCC(=O)OC[C@H]1O[C@@H](n2cc(F)c(N)nc2=O)CS1 [5′-O-tetradecanoyl-2′,3′-dideoxy-5-fluoro-3′-thiacytidine]
- IC50 [1, 19]: 0.056 µg/mL (≈ 0.122 µM)
- IC50 [6, 21]: 1.7 µg/mL (≈ 3.71 µM)
- IC50 [7, 14]: 0.033 µg/mL (≈ 0.0721 µM)

Compound: CCCCCCCCCCCCCCOC[C@H]1O[C@@H](n2cc(C)c(=O)[nH]c2=O)C[C@@H]1F [3′-fluoro-2′,3′-dideoxy-5′-O-(tetradecyl)thymidine]
- IC50 Cell-Free Virus IIIB [1, 14]: 79.1 µg/mL (≈ 180 µM)
- IC50 Cell-Associated Virus SupT1 (IIIB) [6, 14]: >100 µg/mL
- IC50 Cell-Free Virus BaL [7, 14]: 77.3 µg/mL (≈ 175 µM)

Compound: Nc1ccn([C@@H]2CS[C@H](CO)O2)c(=O)n1 [2′,3′-dideoxy-3′-thiacytidine, reference compound]
- IC50 [1, 22]: 7.5 µg/mL (≈ 32.7 µM)
- CC50 [10]: > 100 µg/mL
- IC50 [6, 23]: 18.4 µg/mL (≈ 80.3 µM)
- IC50 [7]: 2.6 µg/mL (≈ 11.3 µM)

Compound: CCSCCCCCCCCCCCC(=O)Nc1ccn([C@H]2CS[C@@H](CO)O2)c(=O)n1 [N4-(13-thiapentadecanoyl)-2′,3′-dideoxy-3′-thiacytidine]
- IC50 [1, 19]: 2.5 µg/mL (≈ 5.3 µM)
- IC50 [6, 21]: > 100 µg/mL
- IC50 [7, 14]: 0.2 µg/mL (≈ 0.424 µM)

Compound: Cc1cn([C@H]2C=C[C@@H](CO)O2)c(=O)[nH]c1=O [2′,3′-didehydro-2′,3′-dideoxythymidine, reference compound]
- IC50 [1, 22]: 6 µg/mL (≈ 26.8 µM)
- IC50 [6, 23]: 30.5 µg/mL (≈ 136 µM)
- IC50 [7]: 6.3 µg/mL (≈ 28.1 µM)
